Results as given in patent US9857375B2, “Cancer marker and utilization thereof” (PUBLIC UNIVERSITY CORPORATION NARA MEDICAL UNIVERSITY, priority 2012, dated 2018).

Key:
[1] = tested on: human urothelial cancer cell strain KU7; assay: TUNEL apoptosis detection after RNA transfection; assay type: cell-based; conditions: 72 hours of culture after lipofection, versus control RNA
Method: Control RNA (QIAGEN) or ubiquilin 2 siRNA was introduced into human urothelial cancer cell strain KU7 (donated by the School of Urology at the Department of Medicine in Keio University). The ubiquilin 2 siRNA used was siRNA synthesized with 5′-[…]-3′ (SEQ ID NO. 3) of the ubiquilin 2 gene as a Target sequence. The introduction of each RNA was performed by a Lipofection technique with a Lipofectamine™ RNAimax (Life Technologies Japan Ltd.).
After 72 hours of culture of the cells transfected with the RNA, TUNEL positive cells (i.e. cells having undergone apoptosis) were detected under a fluorescence microscope by the TUNEL (Terminal deoxynucleotidyl transferase dUTP nick end labeling) technique, and the percentage of the TUNEL positive cells to the total number of cells was calculated.

[2] = tested on: human urothelial cancer cell strain KU7; assay: cell survival assay (MTS assay) after addition of thapsigargin; assay type: cell-based; conditions: thapsigargin 0.1-2.5 μM, 72 hours after addition
Method: To a culture solution prepared by culturing, for 24 hours, cells transfected with RNA in the same manner as in Example 2, thapsigargin (Sigma Corporation), which is an endoplasmic reticulum stress agent, was added so that predetermined concentrations (0.1 μM, 0.5 μM, 1 μM, and 2.5 μM) were achieved.
Seventy-two hours after the addition of thapsigargin, a cell survival assay (MTS assay: with use of a kit from Promega KK) was performed to obtain the number of cells that survived, and the ratio (cell survival rate) of the number of cells that survived in the presence of thapsigargin to the number of cells that survived in the absence of thapsigargin was calculated.

| Compound | apoptosis (TUNEL positive cells to DAPI positive cells, apoptosis rate) [1] | cytotoxicity (cell survival rate) ([2]; KU7 cells transfected with control RNA (ubiquilin 2 gene not knocked down)) | cytotoxicity (cell survival rate) ([2]; KU7 cells transfected with ubiquilin 2 siRNA (ubiquilin 2 gene knocked down)) |
| --- | --- | --- | --- |
| ubiquilin 2 siRNA: siRNA synthesized with 5′-TCCCATAAAGAGACCCTAATA-3′ (SEQ ID NO. 3) of the ubiquilin 2 gene as a Target sequence (siRNA sequence not given here, only target site) | apoptosis (death of cells) was induced in the cancer cells | – | – |
| C/C=C(/C)C(=O)O[C@H]1C(C)=C2[C@H]([C@@H]1OC(=O)CCCCCCC)[C@@](C)(OC(C)=O)C[C@H](OC(=O)CCC)[C@@]1(O)[C@H]2OC(=O)[C@@]1(C)O [thapsigargin] | – | hardly exhibits cytotoxicity | markedly enhanced cytotoxicity |
